{"source": "patent US6602500B1", "about": "“Paenibacillus polymyxa strain ATCC 202127 for biocontrol of bacteria and fungi” (The Governors of the University of Alberta, priority 1998, dated 2003)", "test_system": "L. maculans", "experiment": "Inhibition of growth of L. maculans by other strains and polymyxins (qualitative)", "format": "cell-based, Leptosphaeria maculans", "data": [{"substance": "polymyxins", "values": [{"measurement": "inhibitory effect against L. maculans", "result": "ineffective"}]}]}
